Measurements: patent US20260356814A1, “INDOLINE DERIVATIVES AS SEROTONERGIC AGENTS USEFUL FOR THE TREATMENT OF DISORDERS RELATED THERETO” (MINDSET PHARMA INC., priority 2022, published 2026)

How the values were obtained:
human 5-HT2A receptor = human 5-HT2A receptor (Homo sapiens, UniProt P28223); assay: Human 5-HT2A: Radioligand binding assay ([3H]-ketanserin); conditions: [3H]-ketanserin displacement, 27° C., 90 min, pH 7.4; read-out: h5-HT2A, IC50
Description: Exemplary compounds of Formula I were evaluated functionally using FLIPR assay for their effect on h5-HT2A receptor under agonist mode. The objective of this study was to evaluate the binding properties of exemplary compounds of Formula I on 5-hydroxytryptamine receptor 2A (5-HT2A). • Human 5-HT2A: Radioligand binding assay:
• i. The assay buffer was prepared following the table below.
• Adjust pH to 7.4 followed by […] sterile filtration • ii. 8 doses of reference and test compounds starting from 10 mM stock solution as required was prepared by 5-fold serial dilutions with 100% (v/v) DMSO. • iii. UniFilter-96 GF/B plate was pretreated: • a. 50 μl/well of 0.5% (v/v) PEI was added to UniFilter-96 […] plates. The plates were sealed and incubated at 4° C. for 3 hrs. • b. After incubation, the plates were washed 3 times with ice-cold wash buffer (50 mM Tris, pH7.4). • iv. The assay plate was prepared: • a. Cell membrane was diluted with assay buffer and 330 μl/well was added to 96 round deep well plates to reach a concentration of 20 μg/well. • b. 8 concentrations of reference or test compounds were prepared and 110 μl/well was added to 96 round deep well plates. • c. [3H]-ketanserin was diluted with assay buffer to 5 nM (5X final concentration) and 110 μl/well was added to 96 round deep well plates. • v. The plate was centrifuged at 1000 rpm for 30 secs and then agitated at 600 rpm, R.T. for 5 min. • vi. The plates were sealed and the plate incubated at 27° C. for 90 min. • vii. The incubation was stopped by vacuum filtration onto GF/B filter plates followed by 4 times washing with ice-cold wash buffer (50 mM Tris, pH7.4). • viii. The plates were dried at 37° C. for 45 min. • ix. The filter plates were sealed and 40 μl/well of scintillation cocktail was added. • x. The plate was read by using a Microbeta2 microplate counter.
(§1) • 1. For reference and test compounds, the results were expressed as % Inhibition, using the normalization equation: N=100−100×(U−C2)/(C1-C2), where U is the unknown value, C1 is the average of high controls, and C2 is the average of low controls. • 2. The IC50 was determined by fitting percentage of inhibition as a function of compound concentrations with Hill equation using XLfit.

human 5-HT1A receptor = molecular target: T1, human 5-HT1A receptor (Homo sapiens, UniProt P08908); assay: Human 5-HT1A: Radioligand binding assay ([3H]-8-Hydroxy-DPAT); conditions: [3H]-8-Hydroxy-DPAT displacement, 27° C., 90 min, pH 7.4; read-out: h5-HT1A, IC50
T1 construct: expressed in transfected cells; host or cells: CHO (HTR1A&Ga15-CHO)
T1 sequence (P08908 1-422): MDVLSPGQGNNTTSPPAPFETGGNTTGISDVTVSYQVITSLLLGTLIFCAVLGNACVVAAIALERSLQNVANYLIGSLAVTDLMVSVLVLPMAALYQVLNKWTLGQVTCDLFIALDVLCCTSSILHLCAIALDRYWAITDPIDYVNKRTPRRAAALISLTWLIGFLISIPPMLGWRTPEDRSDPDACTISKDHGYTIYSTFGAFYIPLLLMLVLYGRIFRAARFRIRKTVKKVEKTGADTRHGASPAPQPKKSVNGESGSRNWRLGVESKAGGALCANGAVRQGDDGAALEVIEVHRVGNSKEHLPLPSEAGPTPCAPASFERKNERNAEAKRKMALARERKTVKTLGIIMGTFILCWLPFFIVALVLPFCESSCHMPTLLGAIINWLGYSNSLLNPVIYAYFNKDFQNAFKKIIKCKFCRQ
Description: The objective of this study was to evaluate the binding properties of test compounds on 5-hydroxytryptamine receptor 1A (5-HT1A).
• 1. The assay buffer was prepared following the table below.
• 2. 8 doses of reference and test compounds were prepared starting from 10 mM stock solution as required by 5-fold serial dilutions with 100% (v/v) DMSO. • 3. UniFilter-96 GF/B plate was pretreated: • i. 50 μl/well of 0.5% (v/v) PEI was added to UniFilter-96 GF/B plates. The plates were sealed and incubated at 4° C. for 3 hrs. • ii. After incubation, the plates were washed 3 times with ice-cold wash buffer (50 mM Tris, pH7.4). • 4. Assay plate was prepared: • i. Cell membrane was diluted with assay buffer and 100 μl/well was added to 96 round well plates to reach a concentration of 20 μg/well. • ii. 8 concentrations of reference or test compounds were prepared and 50 μl/well was added to 96 round deep well plates. • iii. [3H]-8-Hydroxy-DPAT was diluted with assay buffer to 2 nM (4X final concentration) and 50 μl/well was added to 96 round well plates. • 5. The plate was centrifuged at 1000 rpm for 30 secs and then agitated at 600 rpm, R.T. for 5 min. • 6. The plates were sealed and the plate was incubated at 27° C. for 90 min. • 7. The incubation was stopped by vacuum filtration onto GF/B filter plates followed by 4 times washing with ice-cold wash buffer (50 mM Tris, pH7.4). • 8. The plates were dried at 37° C. for 45 min. • 9. The filter plates were sealed and 40 μl/well of scintillation cocktail was added. • 10. The plate was read by using a Microbeta2 microplate counter.
as §1, with “N=100−100×(U−C2)/(C1−C2),” for “N=100−100×(U−C2)/(C1-C2),”, “[…]” for “function”

Chain of human 5-HT2A receptor (P28223 whole entry): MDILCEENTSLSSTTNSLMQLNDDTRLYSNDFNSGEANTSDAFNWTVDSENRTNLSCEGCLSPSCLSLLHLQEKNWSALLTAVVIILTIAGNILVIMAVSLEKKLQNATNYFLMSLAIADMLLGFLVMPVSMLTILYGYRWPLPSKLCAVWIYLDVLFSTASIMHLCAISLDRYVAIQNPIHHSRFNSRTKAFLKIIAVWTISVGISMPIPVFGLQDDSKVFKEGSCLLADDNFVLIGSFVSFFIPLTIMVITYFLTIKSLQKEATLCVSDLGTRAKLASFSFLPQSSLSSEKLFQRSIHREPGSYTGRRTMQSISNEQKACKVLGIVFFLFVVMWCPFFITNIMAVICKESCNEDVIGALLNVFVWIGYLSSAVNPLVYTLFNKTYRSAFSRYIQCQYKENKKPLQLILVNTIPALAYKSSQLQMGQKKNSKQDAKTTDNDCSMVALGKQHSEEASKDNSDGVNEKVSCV

SMILES	IC50 (human 5-HT2A receptor) [µM]	IC50 (human 5-HT1A receptor) [µM]
[2H]C([2H])([2H])N1CCC[C@@H]1C([2H])([2H])N1CCc2ccc(OC)cc21 [(R)-I-57, (R)-6-Methoxy-1-((1-(methyl-d3)pyrrolidin-2-yl)methyl-d2) indoline]	7.96	0.01
COc1ccc2c(c1)N(C[C@H]1CCCN1)CC2 [(R)-I-59, (R)-6-Methoxy-1-(pyrrolidin-2-ylmethyl) indoline]	15.3	0.085
[2H]C([2H])([2H])N1CCC[C@@H]1C([2H])([2H])N1CCc2ccccc21 [(R)-I-1, (R)-1-((1-(Methyl-d3)pyrrolidin-2-yl)methyl-d2) indoline]	4.53	0.444
COc1ccc2c(c1)N(C[C@H]1CCCN1C)CC2 [(R)-I-58, (R)-6-Methoxy-1-((1-methylpyrrolidin-2-yl)methyl) indoline]	6.53	0.013
COc1cc2c(cc1OC)N(C[C@H]1CCCN1C)CC2 [(R)-I-34, (R)-5,6-dimethoxy-1-((1-methylpyrrolidin-2-yl)methyl) indoline]	> 30	7.75
[2H]C([2H])([2H])Oc1ccc2c(c1)N(C([2H])([2H])[C@H]1CCCN1C([2H])([2H])[2H])CC2 [(R)-I-28, (R)-6-(Methoxy-d3)-1-((1-(methyl-d3)pyrrolidin-2-yl)methyl-d2) indoline]	8.48	0.00504
COc1cccc2c1CCN2C[C@H]1CCCN1C [(R)-I-47, (R)-4-Methoxy-1-((1-methylpyrrolidin-2-yl)methyl) indoline]	> 30	15.3
[2H]C([2H])([2H])N(CCN1CCc2ccccc21)C([2H])([2H])[2H] [Compound I-71, 2-(Indolin-1-yl)-N,N-bis(methyl-d3) ethan-1-amine]	15	1.62
[2H]C([2H])([2H])N(CCN1CCc2ccc(OC)cc21)C([2H])([2H])[2H] [Compound I-70, 2-(6-Methoxyindolin-1-yl)-N, N-bis(methyl-d3) ethan-1-amine]	25.8	0.193
COc1cccc2c1N(C[C@H]1CCCN1C)CC2 [(R)-I-46, (R)-7-Methoxy-1-((1-methylpyrrolidin-2-yl)methyl) indoline]	2.46	0.211
